The text below walks through data of patent US20220304978A1, “INHIBITING MESANGIAL CELL ACTIVATION” (Chinook Therapeutics, Inc., priority 2019, published 2022).

Positions of bridges follow the written chain, without caps; N, C: chain ends. No end group written: not given here.

The test system of the test is IL-6 production in primary human mesangial cells. In words: ET-1 induced IL-6 production in HRMCs (ELISA). The test is classed as cell-based.

Turning to “ET-1: endothelin 1 (ET-1), used to stimulate primary human mesangial cells (CSCSSLMDKECVYFCHLDIIW; disulfide 1-15, 3-11; ends not checked; UniProt P05305 53-73, looked up)”, the “increase in IL-6 production by primary human mesangial cells exposed to ET-1” value was about 6 fold (48 hours) and about 2.2 fold (72 hours).
